Each structure is given as a SMILES string.

Usually IC50 stands for the point on the concentration scale where inhibition reaches its midpoint.

This assay deals with T1, cholesteryl ester transfer protein (CETP) (Homo sapiens, UniProt P11597).
T1 construct: the source of CETP was human lipoprotein-deprived serum (LPDS); from tissue; host or cells: human lipoprotein-deprived serum (LPDS)
T1 sequence (P11597 18-493): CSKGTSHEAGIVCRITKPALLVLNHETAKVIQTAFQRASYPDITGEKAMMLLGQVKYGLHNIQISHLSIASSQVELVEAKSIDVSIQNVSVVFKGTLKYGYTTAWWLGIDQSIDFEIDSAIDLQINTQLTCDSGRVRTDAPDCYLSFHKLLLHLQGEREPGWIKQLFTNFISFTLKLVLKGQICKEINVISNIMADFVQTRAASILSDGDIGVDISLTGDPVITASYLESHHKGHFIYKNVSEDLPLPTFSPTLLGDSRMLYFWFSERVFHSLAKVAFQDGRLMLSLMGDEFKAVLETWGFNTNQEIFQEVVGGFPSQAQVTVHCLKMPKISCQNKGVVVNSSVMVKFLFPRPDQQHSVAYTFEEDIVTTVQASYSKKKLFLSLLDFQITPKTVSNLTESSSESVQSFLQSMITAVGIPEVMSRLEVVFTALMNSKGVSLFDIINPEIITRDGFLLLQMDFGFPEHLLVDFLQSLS
Put plainly: CETP inhibition SPA assay in the presence of plasma (CETP source: human lipoprotein-deprived serum). The following applies: CETP source human lipoprotein-deprived serum (LPDS), radiolabeled cholesteryl ester transfer from HDL donor to biotin-labeled LDL acceptor. It is filed as biochemical. Here is the method: Activity of CETP inhibitors was determined using a buffer assay system. Partially purified CETP transferred radiolabeled cholesteryl ester from HDL donor particles to biotin-labeled LDL acceptor particles. The reaction was stopped by addition of streptavidin-coupled scintillation proximity assay (SPA) beads. These beads captured the biotinylated acceptor particles and transferred radioactivity was measured. The assay system was purchased and performed according to manufacturer's recommendations (Amersham Biosciences). Inhibitory activity of compounds was determined as percentage of positive control activity containing CETP together with donor and acceptor particles. Serial dilution of compounds was performed in order to determine the IC50 values. Activity of the compounds was subsequently measured in the presence of plasma using the same assay as described above except that the source of CETP was human lipoprotein-deprived serum (LPDS). Inhibitory activity of compounds was determined as percentage of positive control activity containing all the assay components except compound. Serial dilution of compounds was performed in order to determine the IC50 values.
As for `C[Si](C)(C)c1ccc(CN(CCc2cccc(OC(F)(F)F)c2)C(=O)c2c(F)c(Cl)cc3cc[nH]c23)cc1` [Example 1, 5-Chloro-6-fluoro-1H-indole-7-carboxylic acid [2-(3-trifluoromethoxy-phenyl)-ethyl]-(4-trimethylsilanyl-benzyl)-amide], the IC50 was 21 nM. Take `C[Si](C)(C)c1ccc(CN(CCc2cccc(C(F)(F)F)c2)C(=O)c2c(F)c(Cl)cc3cc[nH]c23)cc1` [Example 3, 5-Chloro-6-fluoro-1H-indole-7-carboxylic acid [2-(3-trifluoromethyl-phenyl)-ethyl]-(4-trimethylsilanyl-benzyl)-amide]: the IC50 turned out to be 16 nM. For the molecule `CC(C)[Si](C)(C)c1ccc(CN(CCc2cccc(C(F)(F)F)c2)C(=O)c2c(F)c(Cl)cc3cc[nH]c23)cc1` [Example 6, 5-Chloro-6-fluoro-1H-indole-7-carboxylic Acid [4-(isopropyl-dimethyl-silanyl)-benzyl]-[2-(3-trifluoromethyl-phenyl)-ethyl]-amide], the IC50 came to 44 nM.

Source of the values: patent publication US7572823B2, “Heteroaryl carboxamide compounds” (Hoffmann-La Roche Inc., priority 2006, dated 2009).
